# Where two headings read alike, the source gives them in different places.
# Test: Resorption of octreotide after injection of a solution into the jejunum of anaesthetised rats; plasma concentration by radio-immunoassay
# Format: in vivo, Wistar rats
# Details: for AUC(0-t): area under the curve over 2 hours
# Procedure: Wistar rats (about 300 g body weight) were fasted for 12 hours and anaesthetised with urethane (2 doses of […] i.p.). The abdomen was opened to gain access to the gastrointestinal tract in particular the jejunum. A solution of the pharmaceutical composition according to the invention or of the somatostatin as a control or of a somatostatin in combination with sodium taurocholate, a resorption enhancer, known to be used in combination with e.g. salmon calcitonin or insulin for an improved resorption through the mucous membrane of the gastrointestinal tract, was injected into the gastrointestinal tract, e.g. the jejunum. Blood samples (e.g. 1 ml) are obtained 20 minutes, and 1 and 2 hours after administration from the vena cava. The blood is centrifuged and the somatostatin concentration in the plasma determined in conventional manner using a radio-immunoassay method.
# The relative bioavailability (AUCo² = Area under the curve over 2 hours) is determined and expressed in the following table, in which the AUC is expressed as ng/ml.hour and Cmax as ng/ml: TABLE A
smiles,measurement,setting,value
"C[C@@H](O)[C@@H]1NC(=O)[C@H](CCCCN)NC(=O)[C@@H](Cc2c[nH]c3ccccc23)NC(=O)[C@H](Cc2ccccc2)NC(=O)[C@@H](NC(=O)[C@H](N)Cc2ccccc2)CSSC[C@@H](C(=O)N[C@H](CO)[C@@H](C)O)NC1=O [100 microg. of octreotide (reference), Octreotide]",Cmax,"Wistar, rat, 100 microg., octreotide in plasma, 0.5 ml of NaCl (0.9 % W/V) solution injected into the jejunum, sem in the next column",2.23 ng/mL
same,AUC(0-t),"Wistar, rat, 100 microg., octreotide in plasma, 0.5 ml of NaCl (0.9 % W/V) solution injected into the jejunum, blood samples at 20 minutes, 1 and 2 hours, read-out: AUCo² median",2.06 ng·h/mL
same,AUC(0-t),"Wistar, rat, plasma, 100 microg., octreotide in plasma, 0.5 ml of NaCl (0.9 % W/V) solution injected into the jejunum, sem in the next column, read-out: AUCo² mean",2.26 ng·h/mL
same,Bioavail. rel. %,"relative to 100 microg. of octreotide alone (reference = 100 %), values correspond to the ratio of the median AUCo²",100%

# From patent publication EP0462071B1, “Pharmaceutical resorption-improved somatostatin compositions, their preparation and use” (SANDOZ LTD., priority 1990, dated 1991)
